± gives the expanded uncertainty stated by the source.
Test: xn = mol fraction of the nth substance listed
Conditions: Liquid, Vibrating tube method

CCCCCCCO [heptan-1-ol] + CCCCCCC
mass density [kg/m3]
Conditions | x1 = 0.1493 | x1 = 0.3215 | x1 = 0.5226 | x1 = 0.6698 | x1 = 0.8469 | x1 = 1
298.15 K, 100 kPa | 699.7 ± 1.4 | 723.4 ± 1.4 | 751.3 ± 1.4 | 772.6 ± 1.5 | 804.4 ± 4.1 | 818.7 ± 1.5
298.15 K, 1000 kPa | 700.6 ± 1.4 | 724.2 ± 1.4 | 752.1 ± 1.4 | 773.3 ± 1.5 | 805.1 ± 4 | 819.3 ± 1.5
298.15 K, 5000 kPa | 704.1 ± 1.4 | 727.6 ± 1.4 | 755.2 ± 1.4 | 776.2 ± 1.5 | 807.8 ± 4 | 821.9 ± 1.5
298.15 K, 10000 kPa | 708.4 ± 1.4 | 731.6 ± 1.4 | 759 ± 1.5 | 779.7 ± 1.5 | 811.1 ± 4 | 824.9 ± 1.5
298.15 K, 15000 kPa | 712.4 ± 1.4 | 735.4 ± 1.4 | 762.6 ± 1.5 | 783.2 ± 1.5 | 814.2 ± 4 | 828 ± 1.6
298.15 K, 20000 kPa | 716.2 ± 1.5 | 739.1 ± 1.5 | 765.9 ± 1.5 | 786.3 ± 1.5 | 817.2 ± 4 | 830.8 ± 1.6
298.15 K, 25000 kPa | 719.8 ± 1.5 | 742.4 ± 1.5 | 769.1 ± 1.5 | 789.4 ± 1.5 | 820 ± 4.1 | 833.5 ± 1.6
298.15 K, 30000 kPa | 723.3 ± 1.5 | 745.8 ± 1.5 | 772.3 ± 1.5 | 792.5 ± 1.5 | 822.8 ± 4.1 | 836.3 ± 1.6
298.15 K, 35000 kPa | 726.5 ± 1.5 | 748.9 ± 1.5 | 775.3 ± 1.5 | 795.3 ± 1.5 | 825.4 ± 4.1 | 838.8 ± 1.6
298.15 K, 40000 kPa | 729.7 ± 1.5 | 751.9 ± 1.5 | 778.2 ± 1.5 | 798 ± 1.5 | 828.1 ± 4.1 | 841.3 ± 1.6
298.15 K, 45000 kPa | 732.8 ± 1.5 | 754.9 ± 1.5 | 781 ± 1.5 | 800.7 ± 1.6 | 830.6 ± 4.1 | 843.8 ± 1.6
298.15 K, 50000 kPa | 735.6 ± 1.5 | 757.7 ± 1.5 | 783.6 ± 1.6 | 803.3 ± 1.6 | 833 ± 4.1 | 846.2 ± 1.7
298.15 K, 55000 kPa | 738.5 ± 1.6 | 760.5 ± 1.6 | 786.3 ± 1.6 | 805.9 ± 1.6 | 835.4 ± 4.1 | 848.5 ± 1.7
298.15 K, 60000 kPa | 741.2 ± 1.6 | 763.2 ± 1.6 | 788.8 ± 1.6 | 808.3 ± 1.6 | 837.7 ± 4.1 | 850.8 ± 1.7
298.15 K, 65000 kPa | 743.9 ± 1.6 | 765.7 ± 1.6 | 791.3 ± 1.6 | 810.7 ± 1.6 | 839.9 ± 4.1 | 853 ± 1.7
298.15 K, 70000 kPa | 746.5 ± 1.6 | 768.2 ± 1.6 | 793.7 ± 1.6 | 813.1 ± 1.6 | 842.2 ± 4.1 | 855.2 ± 1.7
298.15 K, 80000 kPa | 751.4 ± 1.7 | 773 ± 1.6 | 798.4 ± 1.6 | 817.6 ± 1.7 | 846.4 ± 4.1 | 859.4 ± 1.7
298.15 K, 90000 kPa | 756.2 ± 1.7 | 777.7 ± 1.7 | 802.8 ± 1.7 | 821.9 ± 1.7 | 850.6 ± 4.1 | 863.5 ± 1.8
298.15 K, 100000 kPa | 760.6 ± 1.7 | 782 ± 1.7 | 807 ± 1.7 | 826 ± 1.7 | 854.5 ± 4.1 | 867.3 ± 1.8
298.15 K, 110000 kPa | 764.9 ± 1.8 | 786.1 ± 1.7 | 811.2 ± 1.7 | 830 ± 1.7 | 858.4 ± 4.1 | 871.1 ± 1.8
298.15 K, 120000 kPa | 768.9 ± 1.8 | 790.1 ± 1.8 | 815 ± 1.8 | 833.8 ± 1.8 | 861.9 ± 4.1 | 874.6 ± 1.8
298.15 K, 130000 kPa | 772.8 ± 1.9 | 793.9 ± 1.8 | 818.7 ± 1.8 | 837.4 ± 1.8 | 865.5 ± 4.2 | 878.1 ± 1.8
298.15 K, 140000 kPa | 776.5 ± 1.9 | 797.6 ± 1.9 | 822.3 ± 1.8 | 840.9 ± 1.8 | 868.9 ± 4.2 | 881.5 ± 1.9
313.15 K, 100 kPa | 686.8 ± 1.4 | 711 ± 1.4 | 739.3 ± 1.4 | 760.9 ± 1.4 | 793.4 ± 4 | 808 ± 1.5
313.15 K, 1000 kPa | 687.7 ± 1.4 | 711.8 ± 1.4 | 740.1 ± 1.4 | 761.7 ± 1.5 | 794 ± 4 | 808.6 ± 1.5
313.15 K, 5000 kPa | 691.7 ± 1.4 | 715.5 ± 1.4 | 743.5 ± 1.4 | 764.9 ± 1.5 | 796.9 ± 4 | 811.4 ± 1.5
313.15 K, 10000 kPa | 696.4 ± 1.4 | 719.9 ± 1.4 | 747.6 ± 1.5 | 768.7 ± 1.5 | 800.4 ± 4 | 814.7 ± 1.5
313.15 K, 15000 kPa | 700.8 ± 1.4 | 724.1 ± 1.5 | 751.5 ± 1.5 | 772.3 ± 1.5 | 803.8 ± 4 | 817.9 ± 1.6
313.15 K, 20000 kPa | 704.9 ± 1.5 | 728 ± 1.5 | 755.2 ± 1.5 | 775.8 ± 1.5 | 807 ± 4 | 821 ± 1.6
313.15 K, 25000 kPa | 708.6 ± 1.5 | 731.5 ± 1.5 | 758.4 ± 1.5 | 778.9 ± 1.5 | 809.9 ± 4.1 | 823.8 ± 1.6
313.15 K, 30000 kPa | 712.6 ± 1.5 | 735.3 ± 1.5 | 762 ± 1.5 | 782.3 ± 1.5 | 813 ± 4.1 | 826.8 ± 1.6
313.15 K, 35000 kPa | 716.1 ± 1.5 | 738.7 ± 1.5 | 765.2 ± 1.5 | 785.4 ± 1.5 | 815.9 ± 4.1 | 829.5 ± 1.6
313.15 K, 40000 kPa | 719.4 ± 1.5 | 741.9 ± 1.5 | 768.2 ± 1.5 | 788.3 ± 1.6 | 818.5 ± 4.1 | 832.1 ± 1.6
313.15 K, 45000 kPa | 722.7 ± 1.5 | 745 ± 1.5 | 771.2 ± 1.5 | 791.1 ± 1.6 | 821.2 ± 4.1 | 834.7 ± 1.6
